Results: patent US20240174618A1, “SUBSTITUTED (2-HETEROARYLOXYPHENYL)SULFONATES, SALTS THEREOF AND THEIR USE AS HERBICIDAL AGENTS” (Bayer Aktiengesellschaft, priority 2021, published 2024)

Assays:
Format in all cases: in vivo
[1] = system: Abutilon theophrasti (ABUTH); test: A. Herbicidal pre-emergence efficacy, ABUTH; conditions: scored visually after about 3 weeks vs untreated controls
In short: (§1)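 Applied before emergence onto covering soil at rates of 1280 g/ha or less, using 600 L/ha spray water with 0.5% additive. Scoring: visual % efficacy after ~3 weeks, greenhouse.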

[2] = system: Digitaria sanguinalis (DIGSA); test: A. Herbicidal pre-emergence efficacy, DIGSA; conditions: scored visually after about 3 weeks vs untreated controls
In short: as §1

[3] = system: Echinochloa crus-galli (ECHCG); test: A. Herbicidal pre-emergence efficacy, ECHCG; conditions: scored visually after about 3 weeks vs untreated controls
In short: as §1

Kochia scoparia (KCHSC) [4] = test: A. Herbicidal pre-emergence efficacy, KCHSC
In short: as §1

Lolium rigidum (LOLRI) = test: A. Herbicidal pre-emergence efficacy, LOLRI; conditions: dosage 1280 g/ha
In short: as §1

[5] = system: Matricaria inodora (MATIN); test: A. Herbicidal pre-emergence efficacy, MATIN
In short: as §1

Poa annua (POAAN) [6] = test: A. Herbicidal pre-emergence efficacy, POAAN
In short: as §1

Setaria viridis (SETVI) [7] = test: A. Herbicidal pre-emergence efficacy, SETVI
In short: as §1

Stellaria media (STEME) [8] = test: A. Herbicidal pre-emergence efficacy, STEME
In short: as §1

Veronica persica (VERPE) [9] = test: A. Herbicidal pre-emergence efficacy, VERPE
In short: as §1

[10] = system: Amaranthus retroflexus (AMARE); test: A. Herbicidal pre-emergence efficacy, AMARE
In short: as §1

[11] = system: Abutilon theophrasti (ABUTH); test: B. Herbicidal post-emergence efficacy, ABUTH; conditions: rated visually after about 3 weeks
In short: (§2)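 First, seeds were sown in sandy loam and grown 2 to 3 weeks under controlled greenhouse conditions. Next, foliage at the one-leaf stage received the formulated compound in water with 0.5% additive (600 L/ha, 1280 g/ha or less). Finally, damage was rated visually after about 3 weeks against untreated plants.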

[12] = system: Alopecurus myosuroides (ALOMY); test: B. Herbicidal post-emergence efficacy, ALOMY; conditions: 1280 g/ha, rated visually after about 3 weeks
Protocol: (§3) Seeds of mono- and dicotyledonous weed plants were placed in plastic pots in sandy loam soil (doubly sown with in each case one species of mono- or dicotyledonous weed plants per pot), covered with soil and cultivated in a greenhouse under controlled growth conditions. 2 to 3 weeks after sowing, the test plants were treated at the one-leaf stage. The compounds of the invention, formulated in the form of wettable powders (WP) or as emulsion concentrates (EC), were applied onto the green parts of the plants as aqueous suspension or emulsion with addition of 0.5% additive at a water application rate of 600 liters per hectare (converted). After the test plants had been kept in the greenhouse under optimum growth conditions for about 3 weeks, the activity of the preparations was rated visually in comparison to untreated controls.
(§4) For example, • 100% efficacy=plants have died, • 0% efficacy=like untreated control plants
(§5) Tables B1a to B12c below show the effects of selected inventive compounds of the general formula (I) according to table 1 on various harmful plants at an application rate corresponding to 1280 g/ha or less, which were obtained by the experimental procedure mentioned above.

[13] = system: Digitaria sanguinalis (DIGSA); test: B. Herbicidal post-emergence efficacy, DIGSA; conditions: 1280 g/ha, rated visually after about 3 weeks
Protocol: as §3, §4, §5

[14] = system: Echinochloa crus-galli (ECHCG); test: B. Herbicidal post-emergence efficacy, ECHCG; conditions: 1280 g/ha, rated visually after about 3 weeks
In short: as §2

Kochia scoparia (KCHSC) [15] = test: B. Herbicidal post-emergence efficacy, KCHSC; conditions: for Post-emergence efficacy against KCHSC in %: rated visually after about 3 weeks
In short: as §2

Poa annua (POAAN) [16] = test: B. Herbicidal post-emergence efficacy, POAAN; conditions: 1280 g/ha
In short: as §2

Setaria viridis (SETVI) [17] = test: B. Herbicidal post-emergence efficacy, SETVI; conditions: 1280 g/ha
Protocol: as §3, §4, §5

Stellaria media (STEME) [18] = test: B. Herbicidal post-emergence efficacy, STEME
In short: as §2

Veronica persica (VERPE) [19] = test: B. Herbicidal post-emergence efficacy, VERPE
In short: as §2

[20] = system: Amaranthus retroflexus (AMARE); test: B. Herbicidal post-emergence efficacy, AMARE
In short: as §2

[21] = pre-emergence, dosage 1280 g/ha

For `CCS(=O)(=O)Oc1ccccc1Oc1ncc(Cl)cn1` [Example I-16], the “Pre-emergence efficacy against ABUTH” value ([1]; 320 g/ha) was 100%, the “Pre-emergence efficacy against ABUTH” value ([1]; 1280 g/ha) was 100% and the “Pre-emergence efficacy against DIGSA” value ([2]; 320 g/ha) was 100%. The “Pre-emergence efficacy against DIGSA” value ([2]; 1280 g/ha) was 100%, the “Pre-emergence efficacy against ECHCG” value ([3]; 320 g/ha) was 90% and the “Pre-emergence efficacy against ECHCG” value ([3]; 1280 g/ha) was 100%. For the same compound, the “Pre-emergence efficacy against KCHSC” value (Kochia scoparia (KCHSC) [4]; 80 g/ha, scored visually after about 3 weeks vs untreated controls) was 100%, the “Pre-emergence efficacy against KCHSC” value (Kochia scoparia (KCHSC) [4]; pre-emergence, dosage 320 g/ha) was 100% and the “Pre-emergence efficacy against KCHSC” value (Kochia scoparia (KCHSC) [4]; [21]) was 100%. The “Pre-emergence efficacy against LOLRI” value (Lolium rigidum (LOLRI)) was 90%, the “Pre-emergence efficacy against MATIN” value ([5]; 320 g/ha, scored visually after about 3 weeks vs untreated controls) was 100% and the “Pre-emergence efficacy against MATIN” value [5, 21] was 100%. For the same compound, the “Pre-emergence efficacy against POAAN” value (Poa annua (POAAN) [6]; dosage 320 g/ha) was 100%, the “Pre-emergence efficacy against POAAN” value (Poa annua (POAAN) [6]; dosage 1280 g/ha) was 100% and the “Pre-emergence efficacy against SETVI” value (Setaria viridis (SETVI) [7]; dosage 320 g/ha) was 100%. For the same compound, the “Pre-emergence efficacy against SETVI” value (Setaria viridis (SETVI) [7]; dosage 1280 g/ha) was 100%, the “Pre-emergence efficacy against STEME” value (Stellaria media (STEME) [8]; dosage 320 g/ha) was 100% and the “Pre-emergence efficacy against STEME” value (Stellaria media (STEME) [8]; dosage 1280 g/ha) was 100%. For the same compound, the “Pre-emergence efficacy against VERPE in %” value (Veronica persica (VERPE) [9]; 320 g/ha) was 90%, the “Pre-emergence efficacy against VERPE in %” value (Veronica persica (VERPE) [9]; 1280 g/ha) was 100% and the “Pre-emergence efficacy against AMARE in %” value ([10]; 80 g/ha) was 100%. For the same compound, the “Pre-emergence efficacy against AMARE in %” value ([10]; 320 g/ha) was 100%, the “Pre-emergence efficacy against AMARE in %” value ([10]; 1280 g/ha) was 100% and the “Post-emergence efficacy against ABUTH in %” value ([11]; 320 g/ha) was 90%. The “Post-emergence efficacy against ABUTH in %” value ([11]; 1280 g/ha) was 100%, the “Post-emergence efficacy against ALOMY in %” value [12] was 90% and the “Post-emergence efficacy against DIGSA in %” value [13] was 90%. The “Post-emergence efficacy against ECHCG in %” value [14] was 90%, the “Post-emergence efficacy against KCHSC in %” value (Kochia scoparia (KCHSC) [15]; 80 g/ha) was 90% and the “Post-emergence efficacy against KCHSC in %” value (Kochia scoparia (KCHSC) [15]; 320 g/ha) was 100%. For the same compound, the “Post-emergence efficacy against KCHSC” value (Kochia scoparia (KCHSC) [15]; 1280 g/ha) was 100%, the “Post-emergence efficacy against POAAN” value (Poa annua (POAAN) [16]) was 100% and the “Post-emergence efficacy against SETVI” value (Setaria viridis (SETVI) [17]) was 90%. The “Post-emergence efficacy against STEME” value (Stellaria media (STEME) [18]; 80 g/ha) was 90%, the “Post-emergence efficacy against STEME” value (Stellaria media (STEME) [18]; 320 g/ha) was 100% and the “Post-emergence efficacy against STEME” value (Stellaria media (STEME) [18]; 1280 g/ha) was 100%. The “Post-emergence efficacy against VERPE” value (Veronica persica (VERPE) [19]; 80 g/ha) was 100%, the “Post-emergence efficacy against VERPE” value (Veronica persica (VERPE) [19]; 320 g/ha) was 100% and the “Post-emergence efficacy against VERPE” value (Veronica persica (VERPE) [19]; 1280 g/ha) was 100%. For the same compound, the “Post-emergence efficacy against AMARE” value ([20]; 80 g/ha) was 100%, the “Post-emergence efficacy against AMARE” value ([20]; 320 g/ha) was 100% and the “Post-emergence efficacy against AMARE” value ([20]; 1280 g/ha) was 100%.
